Consider six compounds from US20160050930A1, “METHODS OF CONTROLLING NEONICOTINOID RESISTANT PESTS” (SYNGENTA PARTICIPATIONS AG, priority 2013, published 2016).

The structures appear in SMILES notation. Structures can show the parent of a compound that is named as a salt.

One may read the melting point as the temperature, or range, at which the solid turns liquid. Take `N#C[C@@]1(c2cncc(Br)c2)C[C@H]2CC[C@@H](C1)N2`: the melting point was in the range of 128 to 130 °C.
In the case of `N#C[C@@]1(c2cncc(I)c2)C[C@H]2C=C[C@@H](C1)N2C1COC1` it was 170 to 171 °C.
The figure for `N#C[C@@]1(c2cncc(Br)c2)C[C@H]2CC[C@@H](C1)N2` (as salt: TFA) is 176 to 178 °C; for `CC(C)(C)OC(=O)N1[C@@H]2CC[C@H]1C[C@](C#N)(c1cncc(Br)c1)C2` it is 125 to 127 °C; for `N#C[C@@]1(c2cncc(F)c2)C[C@H]2C=C[C@@H](C1)N2C1CCC1` it is 91 to 93 °C.
In the case of `N#C[C@@]1(c2cncc(Br)c2)C[C@H]2C=C[C@@H](C1)N2` it was 152 to 153 °C.
